# Key:
# cruzain = cruzain (Trypanosoma cruzi, UniProt P25779); assay: Cruzain counter-screening enzyme assay (Z-Phe-Arg-AMC); format: biochemical; conditions: 10 min preincubation, pH 5.5
# Procedure: Cruzain activity was measured by monitoring the fluorescence signal obtained by cleavage of the fluorogenic substrate Z-Phe-Arg-AMC, following a well-established protocol. The fluorescence intensity (excitation λ: 340 nm; emission λ: 440 nm) was monitored for at least 5 min. All assays were performed in sodium acetate 0.1 M at pH 5.5 and β-mercaptoethanol 10 mM. The final protein concentration was 0.1 nM, and the substrate concentration was 2.5 µM. Each condition was tested in triplicate and two independent assays (n = 6 data points), with preincubation of the enzyme for 10 min at 25 °C. Assays were performed at compound concentrations near the IC50 value against ZIKV NS2B-NS3pro.
# [1] = Cytotoxicity MTT assay (CC50); conditions: African green monkey, Vero (ATCC CCL-81) cells
# Procedure: (§1) The Vero (ATCC® CCL-81™) cell line was used for the cytotoxicity assays and antiviral activity evaluation against ZIKV. Cells were cultured in Eagle’s minimum essential media (MEM) (Cultilab, Campinas, Brazil). The media was supplemented with 5% fetal bovine serum (FBS) (Cultilab, Brazil), in addition to 100 IU/mL penicillin (Cellofarm, Rio De Janeiro, Brazil), 100 μg/mL streptomycin (Merck, Darmstadt, Germany), and 0.25 μg/mL amphotericin B (Cultilab, Brazil).
# (§2) Cells were seeded in 96-well microplates (4.0 × 10^4 cells per well) and incubated at 37 °C and 5% CO2 for 24 h. Then, 200 µL of MEM with 1% FBS containing a serial dilution of the compounds (100 to 12.5 µM) was added. As vehicle control, a serial dilution of DMSO was used. After 72 h of incubation under the same conditions, 100 μL of 3-(4,5-dimethylthiazol-2-yl)-2,5-diphenyltetrazolium bromide (MTT; ThermoFischer Scientific, Waltham, MA, USA) [76] diluted in MEM (0.5 mg/mL) was added to each well and incubated for 3 h. The media was removed, and 100 μL of DMSO was added to each well to solubilize formazan crystals and shaken for 20 min. The absorbance was read at 570 nm using a spectrophotometer (VersaMax, Molecular Devices, San Jose, CA, USA). The percentages of inhibition of cell viability were calculated as the ratio between the absorbance of the compound-treated cells and cells with only the vehicle. […] Linear regression (LR) was used for the analysis, considering results with r^2 > 0.9. All conditions were tested in triplicate and one independent assay (n = 3 data points).
# [2] = test system: Vero (ATCC CCL-81) cell line; assay: Cytotoxicity MTT assay (CC50); conditions: Vero cells
# Procedure: as §1, §2
# ZIKV NS2B-NS3pro = ZIKV NS2B-NS3pro (Zika virus, UniProt A0A024B7W1, C1582S/C1645S/R1467A/R1531G); assay: ZIKV NS2B-NS3pro inhibitory assay with fluorogenic substrate Bz-Nle-Lys-Lys-Arg-AMC; format: biochemical; conditions: for % ZIKV NS2B/NS3pro Inhibition [Enzyme] = 0.2 nM / % ZIKV NS2B/NS3pro Inhibition [Enzyme] = 2 nM: CHAPS 1 mM; for % ZIKV NS2B/NS3pro Inhibition (100 µM) 0.001% Triton / % ZIKV NS2B/NS3pro Inhibition (100 µM) 0.01% Triton / % ZIKV NS2B/NS3pro Inhibition (100 µM) BSA / % ZIKV NS2B/NS3pro Inhibition (100 µM) With Preincubation / % ZIKV NS2B/NS3pro Inhibition (100 µM) Without Preincubation: compound 100 µM; for % ZIKV NS2B/NS3pro Inhibition (100 µM) 0.001% Triton: 0.001% Triton X-100, no Tween-20; for % ZIKV NS2B/NS3pro Inhibition (100 µM) 0.001% Triton / % ZIKV NS2B/NS3pro Inhibition (100 µM) 0.01% Triton: 10 min preincubation; for % ZIKV NS2B/NS3pro Inhibition (100 µM) 0.01% Triton: 0.01% Triton X-100, no Tween-20; for % ZIKV NS2B/NS3pro Inhibition (100 µM) BSA: 10 min pre-incubation with BSA 1 mg/mL before enzyme; for % ZIKV NS2B/NS3pro Inhibition (100 µM) With Preincubation: 10 min preincubation with enzyme; for % ZIKV NS2B/NS3pro Inhibition (100 µM) With Preincubation / % ZIKV NS2B/NS3pro Inhibition (100 µM) Without Preincubation: 0.005% Tween-20; for % ZIKV NS2B/NS3pro Inhibition [Enzyme] = 0.2 nM / % ZIKV NS2B/NS3pro Inhibition (100 µM) With Preincubation: enzyme 0.2 nM; for % ZIKV NS2B/NS3pro Inhibition (100 µM) Without Preincubation: no preincubation; for Hill Slope Replica 1 / Hill Slope Replica 2: from dose-response curve
# [3] = Solubility in cruzain assay buffer; format: physicochemical; conditions: sodium acetate 0.1 M pH 5.5, β-mercaptoethanol 10 mM
# cruzain, sequence (P25779 123-467): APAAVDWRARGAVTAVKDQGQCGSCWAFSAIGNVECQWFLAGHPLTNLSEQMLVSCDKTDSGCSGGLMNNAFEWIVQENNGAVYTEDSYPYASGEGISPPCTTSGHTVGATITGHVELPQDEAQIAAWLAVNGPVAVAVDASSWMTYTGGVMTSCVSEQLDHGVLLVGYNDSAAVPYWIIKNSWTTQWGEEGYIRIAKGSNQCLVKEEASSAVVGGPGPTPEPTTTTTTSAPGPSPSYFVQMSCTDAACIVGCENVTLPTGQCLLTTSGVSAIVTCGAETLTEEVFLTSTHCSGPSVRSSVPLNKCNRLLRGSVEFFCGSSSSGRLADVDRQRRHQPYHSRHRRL
SMILES,inhibition at 25 µM (cruzain; compound 25 µM) [%],CC50 at 72 h [1] [µM],Cell viability as percentage of cell control (mean absorbance / CELL) ([2]; compound 12.5 µM),Cell viability as percentage of cell control (mean absorbance / CELL) ([2]; compound 50 µM),Cell viability as percentage of cell control (mean absorbance / CELL) ([2]; compound 100 µM),% ZIKV NS2B/NS3pro Inhibition [Enzyme] = 0.2 nM (ZIKV NS2B-NS3pro; compound 25 µM (close to IC50)) [%],% ZIKV NS2B/NS3pro Inhibition [Enzyme] = 2 nM (ZIKV NS2B-NS3pro; compound 25 µM (close to IC50)) [%],% ZIKV NS2B/NS3pro Inhibition (100 µM) 0.001% Triton (ZIKV NS2B-NS3pro) [%],% ZIKV NS2B/NS3pro Inhibition (100 µM) 0.01% Triton (ZIKV NS2B-NS3pro) [%],% ZIKV NS2B/NS3pro Inhibition (100 µM) BSA (ZIKV NS2B-NS3pro) [%],% ZIKV NS2B/NS3pro Inhibition (100 µM) With Preincubation (ZIKV NS2B-NS3pro) [%],% ZIKV NS2B/NS3pro Inhibition (100 µM) Without Preincubation (ZIKV NS2B-NS3pro) [%],Hill Slope Replica 1 (ZIKV NS2B-NS3pro),Hill Slope Replica 2 (ZIKV NS2B-NS3pro),Cell viability as percentage of cell control (mean absorbance / CELL) ([2]; compound 25 µM),% Cruzain Inhibition (cruzain; compound 25 µM),inhibition at 10 µM (cruzain; compound 10 µM) [%],% ZIKV NS2B/NS3pro Inhibition [Enzyme] = 0.2 nM (ZIKV NS2B-NS3pro; compound 10 µM (close to IC50)) [%],% ZIKV NS2B/NS3pro Inhibition [Enzyme] = 2 nM (ZIKV NS2B-NS3pro; compound 10 µM (close to IC50)) [%],solubility in the cruzain assay buffer [3]
O=C(Nc1nc2cccnc2[nH]1)c1ccccc1NS(=O)(=O)c1ccc(Cl)cc1 [Compound 1],97 ± 7,22 ± 0.79,61.7079,24.3591,20.1848,45 ± 0.1,26 ± 7,93 ± 8,47 ± 34,69 ± 6,100 ± 0,100 ± 0,3.046,1.585,–,–,–,–,–,–
O=C(Nc1nc2cccnc2[nH]1)c1ccccc1NS(=O)(=O)c1ccc(F)cc1 [Compound 2],42 ± 11,32.5 ± 1.95,77.4987,30.8677,25.9519,30 ± 0.1,28 ± 7,94 ± 7,30 ± 19,32 ± 2,100 ± 0,100 ± 0,0.731,4.089,53.4692,–,–,–,–,–
O=C(Nc1nc2cnccc2[nH]1)c1ccccc1NS(=O)(=O)c1ccc(F)cc1 [Compound 3],–,120 ± 3.68,86.7535,72.6654,56.6548,–,–,–,–,–,–,56 ± 11,–,–,77.5537,–,–,–,–,–
O=C(Nc1nc2cnccc2[nH]1)c1ccccc1NS(=O)(=O)c1ccc(Cl)cc1 [Compound 4],-12 ± 9.1,57.1 ± 1.86,84.584,49.8167,25.183,44 ± 0.2,29 ± 8,93 ± 8,25 ± 15,45 ± 4,100 ± 0,100 ± 0,0.8047,0.5347,66.5687,no inhibitory activity,–,–,–,–
O=C(Nc1nc2cccc(Cl)c2[nH]1)c1ccccc1NS(=O)(=O)c1ccc(F)cc1 [Compound 5],–,< 12.5,44.8735,14.9121,15.1318,–,–,93 ± 3,6 ± 8,94 ± 8,100 ± 0,100 ± 0,3.333,1.731,19.4433,–,69 ± 24,62 ± 0.1,23 ± 8,–
O=C(Nc1nc2ccccc2[nH]1)c1ccccc1NS(=O)(=O)c1ccc(Cl)cc1 [Compound 6],–,38.4 ± 2.18,63.7676,41.6329,48.6633,99 ± 0.4,66 ± 21,89 ± 6,7 ± 9,55 ± 20,100 ± 0,99 ± 2,6.697,4.362,61.7079,–,–,–,–,insoluble

# — PMC10537087, “Evaluating Known Zika Virus NS2B-NS3 Protease Inhibitor Scaffolds via In Silico Screening and Biochemical Assays” (Pharmaceuticals, 2023)
